Assay results published in PubChem BioAssay AID1259411 (Chemical Carcinogenesis Research Information System (CCRIS), 2018).
The source made the active and inactive calls. No rule for the calls is given here.

Test system: rodent carcinogenicity bioassays, tumor incidence
Assay: CCRIS carcinogenicity studies
In short: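 Archive of carcinogenicity, mutagenicity, tumor promotion and tumor inhibition results drawn from journals, NCI reports and other sources, expert-reviewed; covers 1985-2011 and is no longer updated.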

Measured: carcinogen call

Cc1cnc2ccc3c(nc(N)n3C)c2n1
active: Species: MOUSE, Strain/Sex: B6C3F1/MALE, Route: INTRAPERITONEAL, Dose: 0, 0.625 UMOL IN 35 µL DMSO ON D 1, 8, AND 15 AFTER BIRTH (STUDY DURATION: 12 MO), Tumor Site: Type of Lesion: LIVER: HEPATOCELLULAR ADENOMA active; positive | Species: MOUSE, Strain/Sex: B6C3F1/MALE, Route: INTRAPERITONEAL, Dose: 0, 1.25 UMOL IN 35 µL DMSO ON D 1, 8, AND 15 AFTER BIRTH (STUDY DURATION: 12 MO), Tumor Site: Type of Lesion: LIVER: HEPATOCELLULAR ADENOMA, HEPATOCELLULAR CARCINOMA active; positive | Species: MOUSE, Strain/Sex: CDF1/FEMALE, Route: ORAL, Dose: 0, 0.06% IN DIET FOR 84 WK (STUDY DURATION: 84 WK), Tumor Site: Type of Lesion: LIVER: TUMOR, LUNG: ADENOMA OR ADENOCARCINOMA active; positive | Species: MOUSE, Strain/Sex: CDF1/MALE, Route: ORAL, Dose: 0, 0.06% IN DIET FOR 84 WK (STUDY DURATION: 84 WK), Tumor Site: Type of Lesion: LIVER: TUMOR, LYMPHATIC SYSTEM: LYMPHOMA OR LEUKEMIA active; positive | Species: RAT, Strain/Sex: F344/FEMALE, Route: ORAL, Dose: 0, 0.04% IN DIET FOR DURATION OF STUDY (STUDY DURATION: 429 D), Tumor Site: Type of Lesion: LIVER: TUMOR, ZYMBAL GLAND: TUMOR, CLITORAL GLAND: TUMOR, Tumor Site: Type of Lesion: LIVER: TUMOR, ZYMBAL GLAND: TUMOR, CLITORAL GLAND: TUMOR active; positive | Species: RAT, Strain/Sex: F344/MALE, Route: ORAL, Dose: 0, 0.04% IN DIET FOR DURATION OF STUDY (STUDY DURATION: 429 D), Tumor Site: Type of Lesion: LIVER: TUMOR, ZYMBAL GLAND: TUMOR, SKIN: TUMOR, Tumor Site: Type of Lesion: LIVER: TUMOR, ZYMBAL GLAND: TUMOR, SKIN: TUMOR active; positive | Species: RAT, Strain/Sex: F344/MALE, Route: ORAL, Dose: 0, 100, 200, 400 PPM IN DIET FOR 56 WK (STUDY DURATION: 56 WK), Dose: 0, 100, 200, 400 PPM IN DIET FOR 56 WK (STUDY DURATION: 56 WK), Tumor Site: Type of Lesion: LIVER: HEPATOCELLULAR ADENOMA, HEPATOCELLULAR CARCINOMA, ZYMBAL GLAND: SQUAMOUS CELL CARCINOMA, SKIN: TUMOR, Tumor Site: Type of Lesion: LIVER: HEPATOCELLULAR ADENOMA, HEPATOCELLULAR CARCINOMA, ZYMBAL GLAND: SQUAMOUS CELL CARCINOMA, SKIN: TUMOR active; positive | Species: RAT, Strain/Sex: LEC/MALE, Route: ORAL, Dose: 0, 40 PPM IN DIET FOR 40 WK (STUDY DURATION: 40 WK), Tumor Site: Type of Lesion: LIVER: TUMOR active; positive | Species: RAT, Strain/Sex: SPRAGUE-DAWLEY/FEMALE, Route: GAVAGE, Dose: 75 MG/KG/D FOR 10 D, THEN PLACED ON A HIGH-FAT DIET (STUDY DURATION: 46 WK), Tumor Site: Type of Lesion: MAMMARY GLAND: CARCINOMA, ADENOMA active; positive
inactive: Species: MONKEY, Strain/Sex: CYNOMOLGUS/FEMALE, Route: GAVAGE, Dose: 0, 10, 20 MG/KG BW FOR 84 MONTHS (STUDY DURATION: 92 MONTHS), Dose: 0, 10, 20 MG/KG BW FOR 84 MONTHS (STUDY DURATION: 92 MONTHS) inactive; negative | Species: MONKEY, Strain/Sex: CYNOMOLGUS/MALE, Route: GAVAGE, Dose: 0, 10, 20 MG/KG BW FOR 84 MONTHS (STUDY DURATION: 92 MONTHS), Dose: 0, 10, 20 MG/KG BW FOR 84 MONTHS (STUDY DURATION: 92 MONTHS) inactive; negative | Species: MOUSE, Strain/Sex: B6C3F1/MALE, Route: INTRAPERITONEAL, Dose: 0, 0.625 UMOL IN 35 µL DMSO ON D 1, 8, AND 15 AFTER BIRTH (STUDY DURATION: 8 MO) inactive; negative | Species: MOUSE, Strain/Sex: B6C3F1/MALE, Route: INTRAPERITONEAL, Dose: 0, 1.25 UMOL IN 35 µL DMSO ON D 1, 8, AND 15 AFTER BIRTH (STUDY DURATION: 8 MO) inactive; negative | Species: MOUSE, Strain/Sex: C57BL/6J/MALE (20/GROUP), Route: DIET, Dose: 0, 30, 300 PPM FOR 78 WK (STUDY DURATION: 78 WK), Dose: 0, 30, 300 PPM FOR 78 WK (STUDY DURATION: 78 WK) inactive; negative | Species: RAT, Strain/Sex: LEA/MALE, Route: ORAL, Dose: 0, 40 PPM IN DIET FOR 40 WK (STUDY DURATION: 40 WK) inactive; negative

C[C@]12CC[C@@H]3c4cc(O)c(O)cc4CC[C@H]3[C@@H]1CC[C@@H]2O
active: Species: MOUSE, Strain/Sex: CD-1/FEMALE, Route: SUBCUTANEOUS, Dose: 0, 2 UG/D IN CORN OIL ON DAYS 1-5 OF LIFE (STUDY DURATION: 12-18 WK), Tumor Site: Type of Lesion: UTERUS: ADENOCARCINOMA active; positive

Cc1ccc2cc3c(ccc4ccccc43)c3c2c1C=C3
active: Species: MOUSE, Strain/Sex: SWISS/FEMALE, Route: DERMAL, Dose: 0.2 UMOL IN 33.4 µL ACETONE TO SHAVED DORSAL SKIN 2/WK FOR 20 WK (STUDY DURATION: 52 WK), Tumor Site: Type of Lesion: SKIN: PAPILLOMA, KERATOACANTHOMA, EPIDERMAL CARCINOMA active; positive

O=C(O)/C=C/c1ccc(O)c(O)c1
inactive: Species: MOUSE, Strain/Sex: B6C3F1/FEMALE, Route: ORAL, Dose: 0, 2% IN POWDERED BASAL DIET FOR 96 WK (STUDY DURATION: 96 WK) inactive; negative | Species: MOUSE, Strain/Sex: B6C3F1/MALE, Route: ORAL, Dose: 0, 2% IN POWDERED BASAL DIET FOR 96 WK (STUDY DURATION: 96 WK) inactive; negative
active: Species: MOUSE, Strain/Sex: B6C3F1/FEMALE, Route: ORAL, Dose: 0, 2% IN DIET FOR 96 WK (STUDY DURATION: 96 WK), Tumor Site: Type of Lesion: KIDNEY (TUBULAR CELL): ADENOMA active; positive | Species: MOUSE, Strain/Sex: B6C3F1/MALE, Route: ORAL, Dose: 0, 2% IN DIET FOR 96 WK (STUDY DURATION: 96 WK), Tumor Site: Type of Lesion: LUNG (ALVEOLAR CELL): ADENOMA OR ADENOCARCINOMA active; positive | Species: RAT, Strain/Sex: F344/FEMALE, Route: ORAL, Dose: 0, 2% IN DIET FOR 104 WK (STUDY DURATION: 104 WK), Tumor Site: Type of Lesion: FORESTOMACH: PAPILLOMA, CARCINOMA active; positive | Species: RAT, Strain/Sex: F344/FEMALE, Route: ORAL, Dose: 0, 2% IN DIET FOR 104 WK (STUDY DURATION: 104 WK), Tumor Site: Type of Lesion: FORESTOMACH: SQUAMOUS CELL CARCINOMA active; positive | Species: RAT, Strain/Sex: F344/FEMALE, Route: ORAL, Dose: 0, 2% IN POWDERED BASAL DIET FOR 104 WK (STUDY DURATION: 104 WK), Tumor Site: Type of Lesion: FORESTOMACH: PAPILLOMA, SQUAMOUS CELL CARCINOMA active; positive | Species: RAT, Strain/Sex: F344/MALE, Route: ORAL, Dose: 0, 0.4% IN DIET FOR DURATION OF STUDY (STUDY DURATION: 104 WK), Tumor Site: Type of Lesion: FORESTOMACH: PAPILLOMA active; positive | Species: RAT, Strain/Sex: F344/MALE, Route: ORAL, Dose: 0, 2% IN DIET FOR 104 WK (STUDY DURATION: 104 WK), Tumor Site: Type of Lesion: FORESTOMACH: PAPILLOMA, CARCINOMA active; positive | Species: RAT, Strain/Sex: F344/MALE, Route: ORAL, Dose: 0, 2% IN DIET FOR 104 WK (STUDY DURATION: 104 WK), Tumor Site: Type of Lesion: FORESTOMACH: SQUAMOUS CELL CARCINOMA active; positive | Species: RAT, Strain/Sex: F344/MALE, Route: ORAL, Dose: 0, 2% IN POWDERED BASAL DIET FOR 104 WK (STUDY DURATION: 104 WK), Tumor Site: Type of Lesion: FORESTOMACH: PAPILLOMA, SQUAMOUS CELL CARCINOMA active; positive | Species: RAT, Strain/Sex: F344/MALE, Route: ORAL, Dose: 2% IN THE DIET FOR 104 WK (STUDY DURATION: 104 WK), Tumor Site: Type of Lesion: FORESTOMACH: PAPILLOMA, SQUAMOUS CELL CARCINOMA active; positive

CC(C)N(C(=O)SC/C(Cl)=C/Cl)C(C)C
inactive: Species: RAT, Strain/Sex: STRAIN-CD/MALE,FEMALE, Route: ORAL, Dose: 150, 300 PPM IN DIET FOR 78 WK inactive; negative
active: Species: MOUSE, Strain/Sex: B6AKF1/MALE, Route: GAVAGE/ORAL, Dose: 215 MG/KG IN GELATIN FROM D 7-28 OF LIFE THEN 560 PPM IN DIET, Tumor Site: Type of Lesion: LIVER: HEPATOMA active; positive | Species: MOUSE, Strain/Sex: B6C3F1/MALE,FEMALE, Route: GAVAGE/ORAL, Dose: 215 MG/KG IN GELATIN FROM D 7-28 OF LIFE THEN 560 PPM IN DIET, Tumor Site: Type of Lesion: LIVER: HEPATOMA active; positive
